Reference: US20030235852A1, “Nucleic acid-peptide display libraries containing peptides with unnatural amino acid residues, and methods of making same using peptide modifying agents” (priority 2002, published 2003)
Where two headings read alike, the source gives them in different places. Peptide text beside a SMILES is read from it. * marks the point of attachment. X1 = CC1(C)S[C@@H]2[C@H](NC(=O)C*)C(=O)N2[C@H]1C(=O)O

Key:
PBP2a = molecular target: T1, PBP2a (Staphylococcus aureus, UniProt P07944); assay: biochemical; format: biochemical
T1 construct: The truncated PBP2a gene (Roychoudhury et al., J. Biol. Chem. 269:112067-12073, 1994) (cleaved yes); made in house; host or cells: E. coli BL21(DE3)

[1] = molecular target: penicillin-binding protein 2a (PBP2a), truncated, recombinant from E. coli (Staphylococcus aureus (methicillin-resistant, MRSA)) (UniProt P07944); assay: relative IC50: competition with biotinylated ampicillin for PBP2a, SDS-PAGE and streptavidin-HRP blot
[2] = molecular target: penicillin-binding protein 2a (PBP2a), truncated, recombinant from E. coli (Staphylococcus aureus (methicillin-resistant, MRSA)) (UniProt P07944); assay: relative IC50: competition with biotinylated ampicillin for PBP2a

CC[C@H](C)[C@H](NC(=O)[C@H](CSCC(=O)N[C@@H]1C(=O)N2[C@@H]1SC(C)(C)[C@@H]2C(=O)O)NC(=O)[C@H](CC(N)=O)NC(=O)[C@H](CO)NC(=O)[C@H](CC(N)=O)NC(=O)[C@H](CCCNC(=N)N)NC(=O)[C@@H](N)CC(C)C)C(=O)N[C@@H](CCCNC(=N)N)C(=O)N[C@@H](Cc1c[nH]cn1)C(=O)N[C@@H](Cc1ccccc1)C(=O)N[C@@H](Cc1ccccc1)C(=O)O [LRNSNC(pen)IRHFF] (H-LRNSNC(X1)IRHFF-OH)
IC50 (PBP2a; 2 μg pure PBP2a, conjugate 15 min at 37° C., then 20 μg biotinylated ampicillin 10 min, read-out: relative IC50): ~7 mM
improvement of PBP2a inhibition over the parent penam (PBP2a; as compared): about 100 fold

CO/N=C(\C(=O)N[C@@H]1C(=O)N2C(C(=O)O)=C(COC(C)=O)CS[C@H]12)c1csc(N)n1 [cefotaxime, reference compound]
IC50 (PBP2a): 2.9 mM

LRNSNC(COOH)IRHFF (residues 2-12 of SEQ ID NO: 5), peptide derivatized with bromoacetic acid
IC50 [1]: > 35 mM

LRNSNC(pen)IRHFF (residues 2-12 of SEQ ID NO: 5), synthetic peptide penicillanate conjugate
fold improvement compared to 6-aminopenicillanic acid [2]: 100 fold
